Key:
[1] = system: HIV-1 isolate from a patient; assay: In vitro HIV-1 replication assay in PBMC, p24 antigen EIA; format: cell-based, Human Immunodeficiency Virus type 1; conditions: Human immunodeficiency virus 1, 168 h, PHA-activated human PBMC, 7 days
Procedure: In Vitro HIV-1 Replication Assay: A standardized peripheral blood mononuclear cell culture assay for the determination of drug susceptibilities of clinical human HIV-1 isolates was utilized (Japour AJ et al. Antimicro Agents Chemother 1993; 37:1095-1101). Peripheral blood mononuclear cells (2 x 10^6 cells/ml) were stimulated with PHA (5 µg/ml) in complete culture medium at 37°C, in a 5% CO2-95% air-humidified incubator for 72 hours. The 3-day-old PHA-stimulated PBMC was sedimented at 400 g for 10 min at 20-24°C. Supernatant was removed and discarded. The cells were resuspended in complete culture medium supplemented with 3% IL-2. Cell viability was determined with 0.4% trypan blue. Viability was greater than 85%. Cell concentration was adjusted to 4x10^6/ml. Cells were dispensed in 50 µl volumes (2x10^5/well) into 96 well microtiter plates containing 50 µl complete culture medium. HIV-1 infected cultures were initiated with a patient's HIV-1 isolate (50 µl/well) at a multiplicity of infection (MOI) of 0.05 and 0.1 respectively. JO-4A was added to wells in 50 µl volumes at varying concentrations (0.0001 µM - 0.5 µM). The plates were incubated at 37°C and 5% CO2 in humidified chamber for 7 days. On day 4, half of the spent medium (100 µl) was discarded, and 50 µl of fresh complete medium and 50 µl of fresh JO-4A (varying concentrations as above) were added to wells containing spent JO-4A. […]

[2] = system: one-way MLR-generated human T-lymphocyte-mediated cytolysis; assay: Cytolysis by CTLs generated in one-way MLR, 51Cr-release assay; format: cell-based; conditions: T-cell, 1.0 µg/mL JO-4 during 5-7 day one-way MLR, four hour 51Cr-release, read-out: inhibition of the lytic capability of cytotoxic T-cells
Excerpt: The "one-way MLR" was set up in tissue culture flasks with mononuclear cells from two different donors as in the "two-way MLR" described above. However, in "one-way MLR", one of the two mononuclear leukocyte populations was rendered incapable of proliferation by treatment with mitomycin C, an antimitotic drug, prior to culture. In this "one-way MLR", the treated cells served exclusively as stimulators and the untreated cells, still capable of proliferation, served as the responders. The responder cells, during a 5-7 day culture period, expressed the CD8+ phenotype but not the CD4+. These CD8+ cells served exclusively as cytolytic T lymphocytes (CTLs) which lyse target cells from the same individual as the original stimulator cell population. In transplantation, these MHC-restricted cytotoxic CD8+ T-cells lyse MHC disparate donor tissue targets, leading to graft rejection (Abbas, A.K., eds., 1994, 2nd ed., Cellular and Molecular Immunology, W.B. Saunders Co., USA; Imagawa, D.K., et al., in Aggarwal, B.B., et al., eds., 1995, Human Cytokines: Their role in Disease and Therapy, Blackwell Science, Inc., Cambridge, MA).
Mononuclear cells of one donor were first treated with mitomycin C (Sigma Chem. Co., St. Louis, MO) (50 µg/50 x 10^6 cells) in 15 mL tubes wrapped in aluminum foil and incubated in a 37°C water bath for 1 hr. […]

human PBMCs = assay: PHA-induced proliferation of human PBMCs; format: cell-based; conditions: 1.25-50.0 µg/mL, 4 days
Procedure: Human PBMCs were cultured for 4 days in the absence or presence of varying concentrations of JO-4 (1.25, 2.5, 5.0, 10.0 and 50.0 µg/mL). PHA is a potent T-cell mitogen and stimulates T-cells to produce IL-2.

HSV-1 = assay: In vitro HSV-1 replication assay, Hybriwix Probe Systems; format: cell-based, Herpes simplex virus; conditions: Human alphaherpesvirus 1, 48 h, two days, African green monkey kidney cells
Procedure: The antiviral activity of the drug was determined using the Hybriwix™ Probe Systems (Herpes Antiviral Susceptibility Test kit: Diagnostic Hybrids, Inc., Athens, OH). Briefly, either HSV-1 or HSV-2 isolates (ATTC, Rockville, MD) were pre-adsorbed at 37°C and 5% CO2 in a humidified incubator for 60 minutes on African green monkey Kidney cells in a 24-well flat-bottom plate. Following pre-adsorption, the viral inoculum was removed and the growth medium containing various concentrations of appropriate drug was placed in appropriate wells. The culture was continued for 48 hours for the amplification of the virus. Quantification of the HSV DNA present in each well was determined by the nucleic acid hybridization method. The cells and/or virus were lysed with DNA wicking agent and the single-stranded DNA was immobilized on a Hybriwix™ filter by a vertical capillary absorption of the wicking agent/DNA solution. The amount of HSV target DNA from each well was determined using radioactive (I^125)-HSV DNA probe containing genetic sequences, which are homologous to HSV-1 or HSV-2 sequences. The amount of radioactivity present on the Hybriwix™ was dependent upon the amount of HSV DNA present after culture, and was determined in a gamma counter (Packard Instrument Co., Meriden, CT).

SMILES: C=C1C(=O)CC2CC3OC3(C)CCC3OC3(C)CC(O)C1C2(C)C (stereo not drawn) [JO-4A]
- IC50 [1]: 0.1 to 10 nM

SMILES: C=C1C(=O)C[C@H]2C[C@@H]3O[C@@]3(C)CC[C@@H]3O[C@@]3(C)C[C@@H](OC(C)=O)[C@H]1C2(C)C [JO-4, hypoestoxide]
- inhibition at 1 µg/mL [2]: 82%
- effect on PHA-induced proliferation of human lymphocytes (human PBMCs): inhibitory effect
- inhibition at 3.125 µM (HSV-1; 3.125 µM): 53%
- inhibition at 12.5 µM (HSV-1; 12.5 µM): 60%
- IC50 (HSV-1; read-out: IC50 dose on HSV-1 inhibition): ~3120 nM

Source: patent publication EP0986381B1, “USE OF DITERPENES LIKE HYPOESTOXIDES FOR THE MANUFACTURE OF A MEDICAMENT FOR IMMUNOSUPPRESSION, ANTICANCER AND ANTIVIRAL TREATMENT” (Immune Modulation, Inc., priority 1997, dated 1998)
